In brackets after ≈: the same amount, converted by molar mass. Where two headings read alike, the source gives them in different places.
Columns and labels:
human (hACC2) = human (hACC2) (Homo sapiens, UniProt O00763); experiment: In vitro ACC inhibition assay (ADP-Glo), hACC2; format: biochemical; settings: 5 nM ACC2, 20 μM ATP, 20 μM acetyl-CoA
Procedure: The detailed procedure is as follows. […] 10 μL ADP glo reagent was added. […] 20 μL kinase detection reagent was added.

Rhizoctonia solani (Rs) = experiment: Growth inhibition assay of fungal pathogens, Rs; format: cell-based; settings: 48 h
[1] = mycelial plugs, growth inhibition at 48 hours vs 2% DMSO control, read-out: Concentration at 90% Inhibition Rs
[2] = mycelial plugs, growth inhibition vs 2% DMSO control at 48 hours, read-out: Concentration at 90% Inhibition Rs
[3] = read-out: Concentration at 90% Inhibition Rs, Rhizoctonia solani, mycelial plugs, growth inhibition at 48 hours vs 2% DMSO control
[4] = read-out: Concentration at 90% Inhibition Rs, Rhizoctonia solani, mycelial plugs, growth inhibition vs 2% DMSO control at 48 hours

Chain of human (hACC2) (O00763 whole entry): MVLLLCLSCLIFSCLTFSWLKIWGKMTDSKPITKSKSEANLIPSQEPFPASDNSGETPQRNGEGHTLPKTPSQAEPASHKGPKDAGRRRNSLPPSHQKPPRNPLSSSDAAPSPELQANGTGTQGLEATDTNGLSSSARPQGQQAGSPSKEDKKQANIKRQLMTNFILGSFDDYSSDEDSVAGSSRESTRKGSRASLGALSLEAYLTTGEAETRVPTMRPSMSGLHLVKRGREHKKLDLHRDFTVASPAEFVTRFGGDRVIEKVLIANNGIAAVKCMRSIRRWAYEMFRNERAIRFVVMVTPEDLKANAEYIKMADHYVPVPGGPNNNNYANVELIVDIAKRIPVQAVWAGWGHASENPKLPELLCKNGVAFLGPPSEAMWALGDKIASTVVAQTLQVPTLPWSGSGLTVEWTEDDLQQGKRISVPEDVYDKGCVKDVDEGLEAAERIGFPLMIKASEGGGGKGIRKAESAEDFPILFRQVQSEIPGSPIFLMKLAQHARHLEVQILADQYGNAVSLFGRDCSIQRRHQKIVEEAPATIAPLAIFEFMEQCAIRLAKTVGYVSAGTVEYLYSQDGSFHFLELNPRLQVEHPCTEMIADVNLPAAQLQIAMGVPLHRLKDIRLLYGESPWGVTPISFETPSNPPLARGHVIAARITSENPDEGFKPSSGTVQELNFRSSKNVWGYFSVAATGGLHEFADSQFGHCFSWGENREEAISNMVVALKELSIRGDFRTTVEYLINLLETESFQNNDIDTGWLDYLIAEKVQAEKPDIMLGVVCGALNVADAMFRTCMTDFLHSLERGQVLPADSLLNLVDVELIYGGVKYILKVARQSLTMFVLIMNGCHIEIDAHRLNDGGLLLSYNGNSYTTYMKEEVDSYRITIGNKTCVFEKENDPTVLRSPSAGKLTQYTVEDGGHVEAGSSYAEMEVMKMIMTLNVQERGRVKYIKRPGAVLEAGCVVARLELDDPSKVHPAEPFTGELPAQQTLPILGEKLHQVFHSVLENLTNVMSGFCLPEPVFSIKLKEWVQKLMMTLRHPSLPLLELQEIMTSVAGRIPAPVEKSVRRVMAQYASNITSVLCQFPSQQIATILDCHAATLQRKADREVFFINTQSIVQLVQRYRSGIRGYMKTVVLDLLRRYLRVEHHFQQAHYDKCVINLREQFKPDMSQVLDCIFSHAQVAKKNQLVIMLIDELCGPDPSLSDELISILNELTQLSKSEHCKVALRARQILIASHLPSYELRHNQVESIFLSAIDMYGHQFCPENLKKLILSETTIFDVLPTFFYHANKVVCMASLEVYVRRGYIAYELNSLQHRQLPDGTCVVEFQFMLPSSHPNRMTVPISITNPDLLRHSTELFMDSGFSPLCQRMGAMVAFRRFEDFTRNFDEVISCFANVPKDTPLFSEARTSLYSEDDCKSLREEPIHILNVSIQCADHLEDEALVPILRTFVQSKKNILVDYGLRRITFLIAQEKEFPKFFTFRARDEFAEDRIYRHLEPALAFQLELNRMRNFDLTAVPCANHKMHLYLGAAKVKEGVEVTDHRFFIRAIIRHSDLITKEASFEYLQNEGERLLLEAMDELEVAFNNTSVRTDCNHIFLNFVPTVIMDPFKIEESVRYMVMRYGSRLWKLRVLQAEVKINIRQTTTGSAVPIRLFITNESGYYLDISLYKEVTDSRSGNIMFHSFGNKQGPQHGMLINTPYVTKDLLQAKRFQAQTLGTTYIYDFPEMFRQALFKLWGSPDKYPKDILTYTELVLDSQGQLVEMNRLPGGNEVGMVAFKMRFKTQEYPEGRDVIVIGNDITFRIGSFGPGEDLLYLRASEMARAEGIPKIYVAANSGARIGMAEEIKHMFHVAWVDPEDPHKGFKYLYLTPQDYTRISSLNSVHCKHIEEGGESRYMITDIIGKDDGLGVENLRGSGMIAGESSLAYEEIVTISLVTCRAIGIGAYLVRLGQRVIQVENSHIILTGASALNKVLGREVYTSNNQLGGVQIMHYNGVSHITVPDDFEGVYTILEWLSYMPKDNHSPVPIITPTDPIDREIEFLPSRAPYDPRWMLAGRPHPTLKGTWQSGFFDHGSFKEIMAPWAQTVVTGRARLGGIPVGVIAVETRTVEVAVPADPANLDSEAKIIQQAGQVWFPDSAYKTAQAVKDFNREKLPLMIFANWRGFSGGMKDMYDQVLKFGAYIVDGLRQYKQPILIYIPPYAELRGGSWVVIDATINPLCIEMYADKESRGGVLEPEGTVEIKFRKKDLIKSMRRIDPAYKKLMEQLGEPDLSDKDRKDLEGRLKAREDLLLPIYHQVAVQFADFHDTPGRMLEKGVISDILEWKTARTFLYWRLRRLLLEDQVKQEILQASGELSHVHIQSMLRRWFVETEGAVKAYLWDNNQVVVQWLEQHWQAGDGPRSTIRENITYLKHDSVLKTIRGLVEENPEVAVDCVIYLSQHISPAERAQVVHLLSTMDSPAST

Structure (SMILES) | IC50 (human (hACC2); Table 2a) [nM] | IC50 (human (hACC2); Table 2b, additional results) [nM] | IC90 (Rhizoctonia solani (Rs); [1]) [µg/mL] | IC90 (Rhizoctonia solani (Rs); [2]) [µg/mL] | IC90 (Rhizoctonia solani (Rs); [3]) [µg/mL] | IC90 (Rhizoctonia solani (Rs); [4]) [µg/mL]
COc1ccc(F)cc1[C@H](Cn1c(=O)n(C(C)(C)C(=O)NCC(C)C)c(=O)c2c(C)c(-n3nccn3)sc21)OC1CCOCC1 [Compound I-29, (R)-2-(1-(2-(5-fluoro-2-methoxyphenyl)-2-((tetrahydro-2H-pyran-4-yl)oxy)ethyl)-5-methyl-2,4-dioxo-6-(2H-1,2,3-triazol-2-yl)-1,4-dihydro-thieno[2,3-d]pyrimidin-3(2H)-yl)-N-isobutyl-2-methylpropanamide] | 5 to 10 | 5 to 10 | 2 (≈ 3.11 µM) | 2 (≈ 3.11 µM) | – | –
COc1ccc(F)cc1[C@H](Cn1c(=O)n(C(C)(C)C(N)=O)c(=O)c2c(C)c(-n3nccn3)sc21)OC1CCC(=O)CC1 [Compound I-31, (R)-2-(1-(2-(5-fluoro-2-methoxyphenyl)-2-((4-oxocyclo-hexyl)oxy)ethyl)-5-methyl-2,4-dioxo-6-(2H-1,2,3-triazol-2-yl)-1,4-dihydrothieno[2,3-d]pyrimidin-3(2H)-yl)-2-methylpropanamide] | 5 to 10 | 5 to 10 | 2 (≈ 3.34 µM) | 2 (≈ 3.34 µM) | – | –
COc1ccc(F)cc1[C@H](Cn1c(=O)n(C(C)(C)C(=O)NC(C)C)c(=O)c2c(C)c(-n3nccn3)sc21)OC1CCC(=O)CC1 [Compound I-32, (R)-2-(1-(2-(5-fluoro-2-methoxyphenyl)-2-((4-oxocyclo-hexyl)oxy)ethyl)-5-methyl-2,4-dioxo-6-(2H-1,2,3-triazol-2-yl)-1,4-dihydro-thieno[2,3-d]pyrimidin-3(2H)-yl)-N-isopropyl-2-methylpropanamide] | 5 to 10 | 5 to 10 | – | – | 0.08 (≈ 0.125 µM) | 0.08 (≈ 0.125 µM)
COc1ccc(F)cc1[C@H](Cn1c(=O)n(C(C)(C)C(=O)N2CCCC2)c(=O)c2c(C)c(-n3nccn3)sc21)OC1CCC(=O)CC1 [Compound I-33, (R)-1-(2-(5-fluoro-2-methoxyphenyl)-2-((4-oxocyclo-hexyl)oxy)ethyl)-5-methyl-3-(2-methyl-1-oxo-1-(pyrrolidin-1-yl)propan-2-yl)-6-(2H-1,2,3-triazol-2-yl)thieno[2,3-d]pyrimidine-2,4(1H,3H)-dione] | 10 to 40 | 10 to 40 | 0.4 (≈ 0.613 µM) | 0.4 (≈ 0.613 µM) | – | –
COc1ccc(F)cc1[C@H](Cn1c(=O)n(C(C)(C)C(=O)N2CCCCC2)c(=O)c2c(C)c(-n3nccn3)sc21)OC1CCC(=O)CC1 [Compound I-34, (R)-1-(2-(5-fluoro-2-methoxyphenyl)-2-((4-oxocyclohexyl)oxy)ethyl)-5-methyl-3-(2-methyl-1-oxo-1-(piperidin-1-yl)propan-2-yl)-6-(2H-1,2,3-triazol-2-yl)thieno[2,3-d]pyrimidine-2,4(1H,3H)-dione] | 5 to 10 | 5 to 10 | – | – | 2 (≈ 3 µM) | 2 (≈ 3 µM)
COc1ccc(F)cc1[C@H](Cn1c(=O)n(CC(=O)NC(C)C)c(=O)c2c(C)c(-n3nccn3)sc21)OC(C)C [Compound I-35, (R)-2-(1-(2-(5-fluoro-2-methoxyphenyl)-2-isopropoxy-ethyl)-5-methyl-2,4-dioxo-6-(2H-1,2,3-triazol-2-yl)-1,4-dihydrothieno[2,3-d]pyrimidin-3(2H)-yl)-N-isopropylacetamide] | 1 to 5 | 1 to 5 | – | – | 2 (≈ 3.58 µM) | 10 (≈ 17.9 µM)
CCO[C@@H](Cn1c(=O)n(C(C)(C)C(=O)N2CCCC2)c(=O)c2c(C)c(-n3nccn3)sc21)c1cc(F)ccc1OC [Compound I-42, (R)-1-(2-ethoxy-2-(5-fluoro-2-methoxyphenyl)ethyl)-5-methyl-3-(2-methyl-1-oxo-1-(pyrrolidin-1-yl)propan-2-yl)-6-(2H-1,2,3-triazol-2-yl)thieno[2,3-d]pyrimidine-2,4(1H,3H)-dione] | 5 to 10 | 5 to 10 | 0.4 (≈ 0.684 µM) | 0.4 (≈ 0.684 µM) | – | –
COc1ccc(F)cc1[C@H](Cn1c(=O)n(C(C)(C)C(=O)NC(C)C)c(=O)c2c(C)c(-n3nccn3)sc21)OCCO [Compound I-43, (R)-2-(1-(2-(5-fluoro-2-methoxyphenyl)-2-(2-hydroxyethoxy)ethyl)-5-methyl-2,4-dioxo-6-(2H-1,2,3-triazol-2-yl)-1,4-dihydrothieno[2,3-d]pyrimidin-3(2H)-yl)-N-isopropyl-2-methylpropanamide] | 5 to 10 | 5 to 10 | – | – | 0.08 (≈ 0.136 µM) | 0.08 (≈ 0.136 µM)
COc1ccc(F)cc1[C@H](Cn1c(=O)n(C(C)(C)C(=O)N2CCCC2)c(=O)c2c(C)c(-n3nccn3)sc21)OCCO [Compound I-44, (R)-1-(2-(5-fluoro-2-methoxyphenyl)-2-(2-hydroxyethoxy)ethyl)-5-methyl-3-(2-methyl-1-oxo-1-(pyrrolidin-1-yl)propan-2-yl)-6-(2H-1,2,3-triazol-2-yl)thieno[2,3-d]pyrimidine-2,4(1H,3H)-dione] | 5 to 10 | 5 to 10 | 2 (≈ 3.33 µM) | 10 (≈ 16.6 µM) | – | –
COc1ccc(F)cc1[C@H](Cn1c(=O)n(C(C)(C)C(=O)NC(C)C)c(=O)c2c(C)c(-n3nccn3)sc21)OC[C@@H](C)O [Compound I-45, 2-(1-((R)-2-(5-fluoro-2-methoxyphenyl)-2-((R)-2-hydroxypropoxy)ethyl)-5-methyl-2,4-dioxo-6-(2H-1,2,3-triazol-2-yl)-1,4-dihydro-thieno[2,3-d]pyrimidin-3(2H)-yl)-N-isopropyl-2-methylpropanamide] | 10 to 40 | 10 to 40 | – | – | 0.08 (≈ 0.133 µM) | 0.08 (≈ 0.133 µM)
COc1ccc(F)cc1[C@H](Cn1c(=O)n(C(C)(C)C(=O)N2CCCC2)c(=O)c2c(C)c(-n3nccn3)sc21)OC[C@@H](C)O [Compound I-46, 1-((R)-2-(5-fluoro-2-methoxyphenyl)-2-((R)-2-hydroxypropoxy)ethyl)-5-methyl-3-(2-methyl-1-oxo-1-(pyrrolidin-1-yl)propan-2-yl)-6-(2H-1,2,3-triazol-2-yl)thieno[2,3-d]pyrimidine-2,4(1H,3H)-dione] | 5 to 10 | 5 to 10 | 0.4 (≈ 0.651 µM) | 0.4 (≈ 0.651 µM) | – | –
COc1ccc(F)cc1[C@H](Cn1c(=O)n(C(C)(C)C(=O)NC(C)C)c(=O)c2c(C)c(-n3nccn3)sc21)OC[C@H](C)O [Compound I-47, 2-(1-((R)-2-(5-fluoro-2-methoxyphenyl)-2-((S)-2-hydroxypropoxy)ethyl)-5-methyl-2,4-dioxo-6-(2H-1,2,3-triazol-2-yl)-1,4-dihydro-thieno[2,3-d]pyrimidin-3(2H)-yl)-N-isopropyl-2-methylpropanamide] | 10 to 40 | 10 to 40 | – | – | 0.4 (≈ 0.664 µM) | 0.4 (≈ 0.664 µM)
COc1ccc(F)cc1[C@H](Cn1c(=O)n(C(C)(C)C(=O)N2CCCC2)c(=O)c2c(C)c(-n3nccn3)sc21)OC[C@H](C)O [Compound I-48, 1-((R)-2-(5-fluoro-2-methoxyphenyl)-2-((S)-2-hydroxy-propoxy)ethyl)-5-methyl-3-(2-methyl-1-oxo-1-(pyrrolidin-1-yl)propan-2-yl)-6-(2H-1,2,3-triazol-2-yl)thieno[2,3-d]pyrimidine-2,4(1H,3H)-dione] | 5 to 10 | 5 to 10 | 2 (≈ 3.25 µM) | 10 (≈ 16.3 µM) | – | –
COc1ccc(F)cc1[C@H](Cn1c(=O)n(C(C)(C)C(=O)N(C)C)c(=O)c2c(C)c(-n3nccn3)sc21)OC(C)C [Compound I-49, (R)-2-(1-(2-(5-fluoro-2-methoxyphenyl)-2-isopropoxy-ethyl)-5-methyl-2,4-dioxo-6-(2H-1,2,3-triazol-2-yl)-1,4-dihydrothieno[2,3-d]pyrimi-din-3(2H)-yl)-N,N,2-trimethylpropanamide] | 10 to 40 | 10 to 40 | – | – | 0.4 (≈ 0.698 µM) | 0.4 (≈ 0.698 µM)
CNC(=O)C(C)(C)n1c(=O)c2c(C)c(-n3nccn3)sc2n(C[C@H](OC(C)C)c2cc(F)ccc2OC)c1=O [Compound I-50, (R)-2-(1-(2-(5-fluoro-2-methoxyphenyl)-2-isopropoxy-ethyl)-5-methyl-2,4-dioxo-6-(2H-1,2,3-triazol-2-yl)-1,4-dihydrothieno[2,3-d]pyrimidin-3(2H)-yl)-N,2-dimethylpropanamide] | 5 to 10 | 5 to 10 | – | – | 2 (≈ 3.58 µM) | 10 (≈ 17.9 µM)
COc1ccc(F)cc1[C@H](Cn1c(=O)n(C(C)(C)C(=O)N2CC=CC2)c(=O)c2c(C)c(-n3nccn3)sc21)OC(C)C [Compound I-51, (R)-3-(1-(2,5-dihydro-1H-pyrrol-1-yl)-2-methyl-1-oxopropan-2-yl)-1-(2-(5-fluoro-2-methoxyphenyl)-2-isopropoxyethyl)-5-methyl-6-(2H-1,2,3-triazol-2-yl)thieno[2,3-d]pyrimidine-2,4(1H,3H)-dione] | 5 to 10 | 5 to 10 | 0.4 (≈ 0.67 µM) | 0.4 (≈ 0.67 µM) | – | –
COc1ccc(F)cc1[C@H](Cn1c(=O)n(C(C)(C)C(=O)NCC#N)c(=O)c2c(C)c(-n3nccn3)sc21)OC(C)C [Compound I-52, (R)—N-(cyanomethyl)-2-(1-(2-(5-fluoro-2-methoxyphenyl)-2-isopropoxyethyl)-5-methyl-2,4-dioxo-6-(2H-1,2,3-triazol-2-yl)-1,4-dihydro-thieno[2,3-d]pyrimidin-3(2H)-yl)-2-methylpropanamide] | 10 to 40 | 10 to 40 | – | – | > 50 | > 50
Cc1c(-n2nccn2)sc2c1c(=O)n(C(C)(C)C(=O)NC(C)C)c(=O)n2C[C@H](OC(C)C)c1cc(F)ccc1OCCO [Compound I-53, (R)-2-(1-(2-(5-fluoro-2-(2-hydroxyethoxy)phenyl)-2-isopropoxyethyl)-5-methyl-2,4-dioxo-6-(2H-1,2,3-triazol-2-yl)-1,4-dihydrothieno[2,3-d]pyrimidin-3(2H)-yl)-N-isopropyl-2-methylpropanamide] | 10 to 40 | 10 to 40 | 0.08 (≈ 0.13 µM) | 0.08 (≈ 0.13 µM) | – | –

Source: patent US10800791B2, “Triazole ACC inhibitors and uses thereof” (Gilead Apollo, LLC, priority 2015, dated 2020)
